Active and inactive are the calls of the source. Where only a bound is given, the exact number is not on record here.

The text below walks through data of ChEMBL document CHEMBL1201862, “PubChem BioAssay data set” (2004).

For assay [1], the target named is Disintegrin and metalloproteinase domain-containing protein 17 (Homo sapiens, UniProt P78536). As to the kind of experiment: ADAM17 protease inhibitors, dose response, counter-screen for ADAM10 exosite inhibitor project, biochemical, quenched FRET substrate (AID 743253). Background: The purpose of a counterscreen is to sort out artefacts and off-target activity.

Assay [2] in a line: ADAM10 inhibitors, peptide cleavage, dose response, biochemical, QFRET (AID 743254).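 Also: ADAM10 enzyme with the DM2 quenched FRET peptide as substrate; EDANS fluorescence gain as the protease cuts the substrate; inhibitor potency against ADAM10 proteolytic activity.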
Assay [3] has as its target SUMO-activating enzyme (Homo sapiens, UniProt Q9UBT2). As to the kind of experiment: SUMOylation inhibitor hit validation, confirmation, SUMOylation inhibitor project, biochemical, AlphaScreen (AID 2018). Format: functional.
Assay [4] is described as follows: Artemis endonuclease inhibitor potency, dose response, biochemical, fluorescence intensity (AID 720701).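 Also: Artemis endonuclease enzyme.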 Format: functional.
Assay [5] concerns the target T1, Lytic switch protein BZLF1 (Epstein-Barr virus (strain B95-8) (HHV-4) (Human herpesvirus 4), UniProt P03206).
T1 sequence (P03206 whole entry): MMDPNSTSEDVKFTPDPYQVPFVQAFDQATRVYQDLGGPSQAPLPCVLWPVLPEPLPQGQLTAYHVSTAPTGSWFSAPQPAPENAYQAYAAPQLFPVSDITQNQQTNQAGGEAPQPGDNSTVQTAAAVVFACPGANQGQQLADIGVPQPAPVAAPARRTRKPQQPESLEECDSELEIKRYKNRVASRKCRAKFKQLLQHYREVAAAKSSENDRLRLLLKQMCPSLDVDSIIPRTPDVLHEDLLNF
Kind of assay: EBV ZTA inhibitors, dose response, counter-screen for EBNA-1 inhibitor project, biochemical, fluorescence polarization, Epstein-Barr virus, 1536-well (AID 2377).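 Also: fluorescence polarization of Cy5-labelled ZRE DNA probe bound by purified Zta.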 Also noted: species or system human gammaherpesvirus 4.

Assay [6] deals with T2, Epstein-Barr nuclear antigen 1 (Epstein-Barr virus (strain B95-8) (HHV-4) (Human herpesvirus 4), UniProt P03211).
T2 sequence (P03211 whole entry): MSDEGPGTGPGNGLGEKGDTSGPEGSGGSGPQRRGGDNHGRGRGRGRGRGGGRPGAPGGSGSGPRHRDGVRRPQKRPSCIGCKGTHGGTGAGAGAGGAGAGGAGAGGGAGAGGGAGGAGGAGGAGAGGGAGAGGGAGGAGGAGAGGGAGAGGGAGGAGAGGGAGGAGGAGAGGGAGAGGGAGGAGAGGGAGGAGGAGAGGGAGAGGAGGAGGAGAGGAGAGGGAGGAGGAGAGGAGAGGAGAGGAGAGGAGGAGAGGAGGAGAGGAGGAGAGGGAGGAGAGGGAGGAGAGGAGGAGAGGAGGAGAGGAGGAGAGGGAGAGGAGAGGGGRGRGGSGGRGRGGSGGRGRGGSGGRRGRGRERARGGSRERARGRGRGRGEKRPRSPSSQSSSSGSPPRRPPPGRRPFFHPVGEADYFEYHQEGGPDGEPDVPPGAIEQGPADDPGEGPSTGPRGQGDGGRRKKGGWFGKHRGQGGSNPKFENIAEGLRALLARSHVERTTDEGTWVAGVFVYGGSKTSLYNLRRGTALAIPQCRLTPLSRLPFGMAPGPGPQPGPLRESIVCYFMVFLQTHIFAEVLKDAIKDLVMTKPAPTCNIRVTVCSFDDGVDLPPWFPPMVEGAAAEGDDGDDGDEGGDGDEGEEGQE
Kind of assay: EBNA-1 inhibitors, dose response, biochemical, fluorescence polarization, 1536-well (AID 2381).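 Also: fluorescence polarization of a Cy5 DNA probe bound by EBNA-1 protein.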 Also on record: species or system human gammaherpesvirus 4. A general note: In fluorescence polarisation assays a small probe gives low polarisation when free and higher when bound to something large.

The target in assay [7] is Sphingosine 1-phosphate receptor 2 (Homo sapiens, UniProt O95136). As to the kind of experiment: Dose Response Cell Based Assay for Antagonists of the S1P2 Receptor. [Related pubchem assays: 856, 736 ]. Format: functional.
The target of assay [8] is Mitogen-activated protein kinase 10 (Homo sapiens, UniProt P53779). As to the kind of experiment: Dose response biochemical screening assay for inhibitors of c-Jun N-Terminal Kinase 3 (JNK3). [Related pubchem assays: 746 ].
The nature of assay [9]: A cytotoxicity screen of small molecule inhibitors of the PhoP region in Salmonella typhi identified in the primary screen. [Related pubchem assays: 1850, 1864, 1985 ]. Format: functional.
A short description of assay [10]: inhibitors of intracellular T. cruzi replication, confirmation, NIH3T3 host cells, beta-gal luminescence (AID 2044).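 Also: intracellular parasites grown in NIH/3T3 mouse fibroblasts as host cells; luminescent beta-galactosidase reporter signal from transgenic T. cruzi replicating inside host cells; inhibitors lower the luminescence signal.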 Format: functional, cell-based.
A short description of assay [11]: cells.
Assay [12] in a line: cytotoxicity toward NIH3T3 fibroblasts, dose response, counter-screen, cell-based, ATP luminescence, mouse fibroblasts (AID 2010).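 Also: cells exposed to compound for about 90 hours before reading.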 Format: functional.
The target of assay [13] is Peroxisome proliferator-activated receptor gamma/Nuclear receptor corepressor 2 (Homo sapiens, UniProt P37231+Q9Y618). Kind of assay: Counterscreen for NR2E3 inverse agonists: TR-FRET-based biochemical high throughput dose response assay to identify inverse agonists of the interaction between peroxisome proliferator-activated receptor gamma (PPARg) and nuclear receptor co-repressor 2 (NCOR2). Format: functional.

In assay [14] the target is Photoreceptor-specific nuclear receptor (Homo sapiens, UniProt Q9Y5X4). Kind of assay: NR2E3 inverse agonists, dose response, biochemical, TR-FRET (AID 463256). It is filed as functional. In general terms: In TR-FRET formats the signal depends on donor and acceptor labels being close together.
Sequence of Photoreceptor-specific nuclear receptor (Q9Y5X4 whole entry): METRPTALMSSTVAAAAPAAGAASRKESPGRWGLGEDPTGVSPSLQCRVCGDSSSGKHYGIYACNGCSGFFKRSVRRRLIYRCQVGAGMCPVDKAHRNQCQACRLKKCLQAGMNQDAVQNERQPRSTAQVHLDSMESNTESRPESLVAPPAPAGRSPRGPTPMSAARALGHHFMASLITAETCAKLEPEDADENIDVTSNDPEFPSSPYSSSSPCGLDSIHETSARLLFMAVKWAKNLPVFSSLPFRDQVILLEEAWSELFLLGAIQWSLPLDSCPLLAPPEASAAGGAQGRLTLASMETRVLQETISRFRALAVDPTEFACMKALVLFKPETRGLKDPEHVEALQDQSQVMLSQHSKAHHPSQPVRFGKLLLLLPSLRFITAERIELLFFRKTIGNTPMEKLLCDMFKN

Sequence of Mitogen-activated protein kinase 10 (P53779 whole entry): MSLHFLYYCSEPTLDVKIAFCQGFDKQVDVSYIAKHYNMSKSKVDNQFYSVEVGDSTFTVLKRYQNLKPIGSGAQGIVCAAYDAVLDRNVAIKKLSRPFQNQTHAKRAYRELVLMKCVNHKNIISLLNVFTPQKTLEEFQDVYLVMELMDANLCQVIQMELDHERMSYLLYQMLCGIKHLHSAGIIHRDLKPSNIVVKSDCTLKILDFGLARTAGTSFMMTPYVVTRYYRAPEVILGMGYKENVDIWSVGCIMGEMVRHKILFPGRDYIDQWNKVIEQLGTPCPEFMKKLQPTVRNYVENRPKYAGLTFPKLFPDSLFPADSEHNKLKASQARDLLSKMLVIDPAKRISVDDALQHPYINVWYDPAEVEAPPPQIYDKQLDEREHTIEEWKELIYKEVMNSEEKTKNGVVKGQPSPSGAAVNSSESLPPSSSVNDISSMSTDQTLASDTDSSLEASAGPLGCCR
Sequence of Disintegrin and metalloproteinase domain-containing protein 17 (P78536 whole entry, the tested form may be a part): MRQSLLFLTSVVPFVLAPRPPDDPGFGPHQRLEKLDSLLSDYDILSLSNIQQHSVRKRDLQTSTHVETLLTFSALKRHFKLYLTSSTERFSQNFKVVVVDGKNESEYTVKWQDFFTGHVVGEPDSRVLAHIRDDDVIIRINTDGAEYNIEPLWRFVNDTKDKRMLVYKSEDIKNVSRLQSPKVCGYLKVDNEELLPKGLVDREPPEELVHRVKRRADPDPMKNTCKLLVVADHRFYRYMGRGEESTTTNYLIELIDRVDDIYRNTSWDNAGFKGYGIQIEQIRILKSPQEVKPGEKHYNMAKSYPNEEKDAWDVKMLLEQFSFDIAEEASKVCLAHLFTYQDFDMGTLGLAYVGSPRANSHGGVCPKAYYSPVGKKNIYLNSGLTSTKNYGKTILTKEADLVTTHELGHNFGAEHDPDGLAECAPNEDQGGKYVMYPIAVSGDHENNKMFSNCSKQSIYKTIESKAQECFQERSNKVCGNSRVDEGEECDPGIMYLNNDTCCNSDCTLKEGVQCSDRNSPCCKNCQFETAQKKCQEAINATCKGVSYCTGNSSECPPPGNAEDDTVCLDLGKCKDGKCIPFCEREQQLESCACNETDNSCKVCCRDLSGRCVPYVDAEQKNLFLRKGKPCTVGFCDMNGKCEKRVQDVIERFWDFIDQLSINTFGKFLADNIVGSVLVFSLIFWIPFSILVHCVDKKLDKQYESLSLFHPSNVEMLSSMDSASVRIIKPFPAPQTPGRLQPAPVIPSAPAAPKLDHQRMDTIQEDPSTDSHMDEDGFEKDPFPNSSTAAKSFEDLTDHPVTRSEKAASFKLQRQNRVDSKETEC
Sequence of Sphingosine 1-phosphate receptor 2 (O95136 whole entry): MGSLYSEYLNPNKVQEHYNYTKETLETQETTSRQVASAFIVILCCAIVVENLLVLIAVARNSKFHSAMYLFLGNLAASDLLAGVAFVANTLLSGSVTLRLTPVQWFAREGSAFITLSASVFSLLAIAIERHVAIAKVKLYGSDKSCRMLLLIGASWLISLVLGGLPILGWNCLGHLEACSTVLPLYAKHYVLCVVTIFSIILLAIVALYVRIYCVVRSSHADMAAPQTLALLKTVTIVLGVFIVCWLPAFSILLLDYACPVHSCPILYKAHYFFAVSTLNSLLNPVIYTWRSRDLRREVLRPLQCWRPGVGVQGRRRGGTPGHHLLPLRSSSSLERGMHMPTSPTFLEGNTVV
Sequence of Peroxisome proliferator-activated receptor gamma/Nuclear receptor corepressor 2 (P37231 whole entry): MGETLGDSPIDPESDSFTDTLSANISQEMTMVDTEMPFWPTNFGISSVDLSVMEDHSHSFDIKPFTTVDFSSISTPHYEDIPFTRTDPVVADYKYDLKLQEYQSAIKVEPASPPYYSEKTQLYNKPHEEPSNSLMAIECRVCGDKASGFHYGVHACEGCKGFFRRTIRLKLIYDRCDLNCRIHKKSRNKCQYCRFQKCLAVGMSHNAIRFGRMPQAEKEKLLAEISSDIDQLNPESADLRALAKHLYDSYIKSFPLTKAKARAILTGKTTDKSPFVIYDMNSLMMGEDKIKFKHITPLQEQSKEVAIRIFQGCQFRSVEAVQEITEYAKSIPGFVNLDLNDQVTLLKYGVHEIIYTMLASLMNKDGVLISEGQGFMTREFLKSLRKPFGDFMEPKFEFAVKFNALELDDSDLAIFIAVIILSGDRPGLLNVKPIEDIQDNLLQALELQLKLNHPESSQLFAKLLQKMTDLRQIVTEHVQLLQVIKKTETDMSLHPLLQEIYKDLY
Sequence of Peroxisome proliferator-activated receptor gamma/Nuclear receptor corepressor 2 (Q9Y618 whole entry): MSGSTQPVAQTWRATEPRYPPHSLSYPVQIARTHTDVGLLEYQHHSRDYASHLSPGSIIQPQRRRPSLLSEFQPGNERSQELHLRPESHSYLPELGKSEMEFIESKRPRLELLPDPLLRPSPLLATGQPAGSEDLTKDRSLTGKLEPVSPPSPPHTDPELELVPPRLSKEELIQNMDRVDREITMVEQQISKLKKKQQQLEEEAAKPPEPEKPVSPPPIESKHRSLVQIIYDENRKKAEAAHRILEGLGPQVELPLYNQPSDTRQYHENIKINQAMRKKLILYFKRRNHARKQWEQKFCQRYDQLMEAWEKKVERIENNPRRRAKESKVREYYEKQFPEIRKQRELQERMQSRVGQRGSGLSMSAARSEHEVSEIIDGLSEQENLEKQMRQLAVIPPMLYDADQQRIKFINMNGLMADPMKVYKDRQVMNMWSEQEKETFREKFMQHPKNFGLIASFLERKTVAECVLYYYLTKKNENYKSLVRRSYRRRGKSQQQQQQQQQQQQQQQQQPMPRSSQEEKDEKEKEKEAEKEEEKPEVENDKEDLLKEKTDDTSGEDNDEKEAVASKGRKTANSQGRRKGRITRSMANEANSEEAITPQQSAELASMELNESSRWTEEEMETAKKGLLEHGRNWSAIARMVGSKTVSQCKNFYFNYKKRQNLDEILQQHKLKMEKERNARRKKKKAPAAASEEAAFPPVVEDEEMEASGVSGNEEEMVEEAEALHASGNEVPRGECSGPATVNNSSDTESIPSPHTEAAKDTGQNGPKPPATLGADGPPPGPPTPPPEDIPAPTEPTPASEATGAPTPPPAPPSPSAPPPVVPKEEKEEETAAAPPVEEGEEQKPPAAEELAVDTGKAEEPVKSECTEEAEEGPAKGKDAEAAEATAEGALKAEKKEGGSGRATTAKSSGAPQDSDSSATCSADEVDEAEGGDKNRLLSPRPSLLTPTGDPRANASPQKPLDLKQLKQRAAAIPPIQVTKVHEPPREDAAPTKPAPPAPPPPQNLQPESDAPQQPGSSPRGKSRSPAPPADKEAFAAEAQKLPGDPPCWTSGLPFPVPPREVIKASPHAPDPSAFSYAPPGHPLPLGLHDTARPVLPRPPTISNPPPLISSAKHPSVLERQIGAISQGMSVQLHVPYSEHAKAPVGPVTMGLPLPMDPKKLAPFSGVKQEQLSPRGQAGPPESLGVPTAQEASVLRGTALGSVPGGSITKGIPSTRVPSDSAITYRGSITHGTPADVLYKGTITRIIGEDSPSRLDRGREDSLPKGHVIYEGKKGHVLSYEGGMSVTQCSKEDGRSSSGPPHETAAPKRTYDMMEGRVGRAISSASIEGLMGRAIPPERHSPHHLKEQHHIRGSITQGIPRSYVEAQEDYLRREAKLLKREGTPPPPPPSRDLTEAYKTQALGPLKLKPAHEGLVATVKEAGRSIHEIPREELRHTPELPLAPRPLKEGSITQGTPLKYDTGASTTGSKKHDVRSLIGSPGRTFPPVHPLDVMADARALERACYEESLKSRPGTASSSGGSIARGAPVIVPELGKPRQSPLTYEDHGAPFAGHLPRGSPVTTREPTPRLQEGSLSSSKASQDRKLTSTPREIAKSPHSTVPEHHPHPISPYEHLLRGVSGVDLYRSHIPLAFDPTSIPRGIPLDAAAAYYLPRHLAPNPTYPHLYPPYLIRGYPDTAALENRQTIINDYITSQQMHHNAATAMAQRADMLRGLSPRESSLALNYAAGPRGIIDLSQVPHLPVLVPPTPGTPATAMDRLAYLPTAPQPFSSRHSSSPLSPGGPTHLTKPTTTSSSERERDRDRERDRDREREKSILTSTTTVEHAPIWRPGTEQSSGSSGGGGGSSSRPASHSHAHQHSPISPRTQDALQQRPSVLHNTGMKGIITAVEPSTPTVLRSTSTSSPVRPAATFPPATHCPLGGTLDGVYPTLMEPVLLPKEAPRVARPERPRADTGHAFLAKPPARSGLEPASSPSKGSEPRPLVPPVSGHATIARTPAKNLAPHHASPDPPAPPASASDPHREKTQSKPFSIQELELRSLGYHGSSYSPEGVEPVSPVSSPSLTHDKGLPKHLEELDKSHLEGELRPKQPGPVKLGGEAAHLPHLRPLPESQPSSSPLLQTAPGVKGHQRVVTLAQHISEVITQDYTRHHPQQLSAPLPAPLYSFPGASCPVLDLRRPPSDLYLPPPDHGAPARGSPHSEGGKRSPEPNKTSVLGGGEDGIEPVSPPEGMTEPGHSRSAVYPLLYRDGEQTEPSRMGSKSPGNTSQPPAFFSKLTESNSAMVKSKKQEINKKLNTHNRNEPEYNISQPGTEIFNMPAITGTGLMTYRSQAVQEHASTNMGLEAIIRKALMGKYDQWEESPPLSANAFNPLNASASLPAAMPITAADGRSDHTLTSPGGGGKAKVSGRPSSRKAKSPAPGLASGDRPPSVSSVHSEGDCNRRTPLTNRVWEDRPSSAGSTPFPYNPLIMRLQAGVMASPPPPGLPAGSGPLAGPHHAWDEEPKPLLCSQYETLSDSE

As a reminder, the IC50 is the midpoint of a concentration-inhibition curve. Take `CSc1cccc(NC(=O)/C=C/c2ccc(Cl)cc2)c1`: the IC50 in assay [1] and in assay [2] was > 69.5 µM (inactive) each time.
`O=C(Nc1cccc2nsnc12)c1ccc(-c2cccc(Cl)c2)o1`: the IC50 was 18.3 µM (active) in assay [3] and > 20 µM (inactive) in [4].
Take `N#Cc1c2ncn(CC(=O)c3ccc(Br)cc3)c(=O)c2c2n1CCC2`: the values for the IC50 in assay [5] and in [6] were > 111 µM (not active) and 13.1 µM (not active), respectively.
Regarding `CN(C)/C=N\C(=O)c1sc2cc(C(F)(F)F)cnc2c1-c1cccs1`, in assay [7], the IC50 is > 30 µM (not active).
For the molecule `COCc1cc(C)nc(SCC(=O)Nc2cc3c(cc2C#N)OCO3)c1C#N`, the IC50 in assay [8] is > 93.1 µM (not active).
For orientation: EC50 means the concentration at which the effect is half-maximal. Regarding `CN1CCc2nc(SCC(=O)Nc3cccc(F)c3)c(C#N)c(-c3cccs3)c2C1`, the EC50 in assay [9] was > 50 µM (active); in assay [10], < 0.1 µM (active); in assay [11], < 0.004 µM (active); in [12] it was > 60 µM (not active).
For the molecule `COc1ccc(CC(=O)NCC2CCCN(Cc3ccc(SC)cc3)C2)cc1` (stereo unspecified), the EC50 in assay [10] was < 0.1 µM (active); in assay [11] it was 0.034 µM (active); in [12] it was > 60 µM (not active).
`COC(=O)c1sccc1NC(=O)c1ccc(OC)cc1`: in assay [8], the half-maximal inhibitory concentration (IC50) was 26.8 µM (not active).
Take `CC(C)=CCCC(C)CN1CCC(n2nccc2NC(=O)c2ccc3c(c2)OCO3)CC1` (stereo unspecified): the values for the EC50 in [10], in assay [11] and in assay [12] were < 0.1 µM (active), > 10 µM (not active) and 9.11 µM (active), respectively.
For the molecule `Cc1ccc2oc(-c3ccc(NC(=O)c4ccc5c(c4)OCO5)cc3)nc2c1`, the IC50 in assay [13] was 2 µM (active); in [14], 2.88 µM (active).
